In one test the target is KRAS-G12D (Homo sapiens, UniProt P01116, G12D). The experiment in a line: SOS-catalyzed nucleotide exchange assay (Procedure A, TR-FRET), KRAS-G12D. It counts as biochemical. Conditions: nucleotide exchange, read-out: KRAS G12D GNE IC50. From the text: (§1) Procedure for SOS-Catalyzed Nucleotide Exchange Assay for KRAS-WT, G12C/D/V, G13D, HRAS, and NRAS (Procedure A)
(§2) Recombinant KRAS-G12C protein used in this assay has an additional triple mutation (C51S/C80L/C118S). Whereas KRAS-WT, G12D/V, G13D, HRAS and NRAS are in context of their WT protein sequence background. Specifically, the SOS-catalyzed nucleotide exchange assay utilizes a preformed TR-FRET complex containing a specific biotinylated RAS protein (KRAS-WT, G12C/V/D, G13D, HRAS, NRAS; described above) with Bodipy-GDP, and Terbium-streptavidin. Compounds are preincubated with this complex for 60 minutes. Subsequently, recombinant human SOS protein and unlabeled GTP are added to initiate the exchange reaction. Small molecule inhibitors stabilize the Bodipy-GDP complex whereas the untreated protein rapidly exchanges Bodipy-GDP for unlabeled GTP resulting in reduced TR-FRET signal.
(§3) To assemble the preformed TR-FRET complexes, each biotinylated RAS protein is diluted to 2 μM in an EDTA Buffer (20 mM HEPES pH 7.5, 50 mM sodium chloride, 10 mM EDTA, and 0.01% Tween) and incubated at room temperature for one hour. This mixture is then further diluted to 90 nM in an Assay Buffer (20 mM HEPES pH 7.5, 150 mM sodium chloride, 10 mM magnesium chloride, and 0.005% Tween) containing 15 nM of Terbium-Streptavidin (Invitrogen, catalog #PV3577) and 900 nM of Bodipy-GDP (Invitrogen, catalog #G22360) and incubated at room temperature for six hours. It should be noted that this preformed TR-FRET complex for each of the RAS protein were made ahead of time, aliquoted and stored at −80° C. until the day of the experiment.
(§4) Each test compound (10 mM stock in DMSO) is diluted in DMSO to make a final-10-point, 3-fold dilution and is acoustically dispensed into a 384-well assay plate (Corning, catalog #3820) using an Echo 550 (Labcyte). Each well of the assay plate receives 3 μL of a specific 3×RAS preformed TR-FRET complex and 3 μL of Assay Buffer and is incubated at room temperature for 60 minutes (preincubation time). Each well then receives 3 μL of 3×recombinant human SOS protein and GTP (Sigma, G8877) in Assay Buffer and is incubated at room temperature for 30 minutes (G13D), 60 minutes (KRAS WT/G12C/D, H/NRAS) or 90 minutes for G12V. The final reaction in each well of 9 μL consists of 3 mM GTP, specific Ras and SOS proteins in the following concentrations: KRAS-G12C/SOS=3 nM/40 nM, KRAS-WT and G12D/SOS=1 nM/40 nM, KRAS-G12V/SOS=1.25 nM/160 nM. KRAS-G13D/SOS=1.25 nM/0 nM, HRAS and NRAS=1.25 nM/40 nM.
(§5) The time-resolved fluorescence resonance energy transfer (TR-FRET) signal is measured on an Envision (PerkinElmer) plate reader: Excitation filter=340 nm; emission 1=495 nm; emission2=520 nm; dichroic mirror=D400/D505; delay time=[…]. The signal of each well is determined as the ratio of the emission at 520 nm to that at 495 nm. Percent effect of each well is determined after normalization to control wells containing DMSO (no effect) or a saturating concentration of inhibitor (max effect). The apparent effect as a function of compound concentration is fit to a four-parameter logistic equation.
A general note: In TR-FRET formats the signal depends on donor and acceptor labels being close together.

A further test addresses KRAS-G12V (Homo sapiens, UniProt P01116, G12V). Briefly: SOS-catalyzed nucleotide exchange assay (Procedure A, TR-FRET), KRAS-G12V. It counts as biochemical. The note with it: nucleotide exchange, read-out: KRAS G12V GNE IC50.
Text: as §1, §2, §3, §4, §5

Another test deals with AsPC-1 cells. Briefly: Cellular phospho-ERK assay, AsPC-1 cells (homozygous KRAS-G12D). The note with it: Homo sapiens, ASPC1, 2 h, read-out: AsPC1 pERK IC50. It counts as cell-based. The protocol:
Procedure for Cellular Phospho-ERK Assay in KRAS Wild Type and Mutant (G12D, G12V) Cell Lines
MKN-1 cells (JCRB JCRB0252) containing amplified wild-type KRAS, were cultured in growth medium that contains RPMI 1640-GlutaMAX™-I (ThermoFisher Scientific 61870) containing 10% heat inactivated fetal bovine serum (ThermoFisher Scientific 10091148), 1 mM sodium pyruvate and 10 mM HEPES. PANC08.13 cells (ATCC® CRL-2551™), containing homozygous KRAS-G12D activating mutation, were cultured in growth medium made of RPMI1640-GlutaMAX™-I (ThermoFisher Scientific 61870) containing 15% heat inactivated fetal bovine serum (ThermoFisher Scientific 10091148)). AsPC-1 cells (ATCC® CRL-1682™), containing homozygous KRAS-G12D activating mutation, were cultured in T150 flask in growth medium (RPMI medium 1640-GlutaMAX™-I (ThermoFisher Scientific 61870) containing 10% fetal bovine serum (ThermoFisher Scientific 10091148)). SW620 cells (ATCC® […]), containing homozygous KRAS-G12V activating mutation, were cultured in growth medium that contains RPMI 1640-GlutaMAX™-I (ThermoFisher Scientific 61870) containing 10% heat inactivated fetal bovine serum (ThermoFisher Scientific 10091148).
Cells for the assay were harvested in growth medium after TrypLE (ThermoFisher scientific 12604021) digestion and were seeded in a 384-well collagen coated cell culture plate (Corning 356702) at a density of 10,000-15,000 cells/20 μL/well, and incubated at 37° C., 5% CO2 overnight. The compound (with 10 mM stock concentration) dose-response titrations were prepared [30 μM final ERK detection assay concentration and 1:3 dilutions, 10-point dose response] and appropriate amounts (270 nL) of test compounds were dispensed in a 384-well intermediate plate using an Echo 550 liquid handler. 30 μL/well of RPMI medium 1640-GlutaMAX™—I was added to the intermediate plate and the contents of the intermediate plate (10 μL/well) were then transferred to the 384-well collagen coated cell culture plate, which was incubated at 37° C., 5% CO2 for 2 hours. After removal of medium from the collagen coated cell culture plate, cells were lysed in lysis buffer from Alpha SureFire® Ultra™ Multiplex p-ERK and total ERK assay kit (PerkinElmer MPSU-PTERK) containing Halt™ Protease and Phosphatase inhibitor cocktail (ThermoFisher Scientific 78446) at room temperature with constant shaking at 300 rpm for 30 minutes. The cell lysates were then transferred to an OptiPlate-384 plate (PerkinElmer 6005620), and the phosphorylation of ERK (p-ERK) and total ERK levels were detected by Alpha SureFire® Ultra™ Multiplex p-EEK kit and total ERK assay kit (PerkinElmer MPSU-PTERK) following the manufacturer's protocol. Assay plates were read on a En Vision Multimode Plate Reader (PerkinElmer), and the ratio of p-ERK vs. total ERK in each well was used as the final readout. Dose response curves were analyzed using a 4-parameter logistic model to calculate IC50 values using Spotfire software.

The target in a further test is KRAS-WT (Homo sapiens, UniProt P01116). The experiment in a line: SOS-catalyzed nucleotide exchange assay (Procedure A, TR-FRET), KRAS-WT. It counts as biochemical. The note with it: nucleotide exchange, read-out: KRAS WT GNE IC50.
Text: as §1, §2, §3, §4, §5

Where two headings read alike, the source gives them in different places.

Sequence of KRAS-WT (P01116 with tags, fused parts or gaps isoform P01116-2): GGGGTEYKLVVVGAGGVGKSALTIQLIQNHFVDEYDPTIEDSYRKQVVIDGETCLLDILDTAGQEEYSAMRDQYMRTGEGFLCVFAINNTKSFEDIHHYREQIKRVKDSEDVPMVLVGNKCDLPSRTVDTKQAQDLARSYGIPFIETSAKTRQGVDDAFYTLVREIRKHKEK
Sequence of KRAS-G12V (P01116 with tags, fused parts or gaps isoform P01116-2 G12V): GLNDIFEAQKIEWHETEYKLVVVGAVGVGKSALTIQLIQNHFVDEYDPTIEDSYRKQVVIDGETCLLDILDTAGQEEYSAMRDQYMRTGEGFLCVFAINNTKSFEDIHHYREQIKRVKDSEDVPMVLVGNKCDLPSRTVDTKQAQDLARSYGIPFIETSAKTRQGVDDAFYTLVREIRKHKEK
Sequence of KRAS-G12D (P01116 with tags, fused parts or gaps isoform P01116-2 G12D): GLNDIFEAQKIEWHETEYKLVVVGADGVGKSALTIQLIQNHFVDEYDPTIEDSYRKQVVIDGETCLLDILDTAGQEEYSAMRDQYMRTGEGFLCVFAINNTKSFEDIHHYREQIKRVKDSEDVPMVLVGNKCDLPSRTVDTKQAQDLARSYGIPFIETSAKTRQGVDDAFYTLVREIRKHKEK

Consider `C[C@@]1(O)COCCN(c2nc(OC[C@@]34CCCN3C[C@H](F)C4)nc3sc4c(-c5c(C6=CCC6)c(C(F)(F)F)cc6[nH]ncc56)nccc4c23)C1` [Ex-77, (6S)-4-(8-(5-(cyclobut-1-en-1-yl)-6-(trifluoromethyl)-1H-indazol-4-yl)-2-(((2R,7aS)-2-fluorotetrahydro-1H-pyrrolizin-7a(5H)-yl)methoxy)pyrido[4′,3′:4,5]thi-eno[2,3-d]pyrimidin-4-yl)-6-methyl-1,4-oxazepan-6-ol], for which the IC50 was determined as 15 nM at KRAS-G12D; 20.8 nM on KRAS-G12V; 175 nM in the test on AsPC-1 cells (KRAS-G12D, 2 hours); 61.8 nM on KRAS-WT.

Turning to `C=CC(F)(F)c1c(C)cc2[nH]ncc2c1-c1nccc2c1sc1nc(OC[C@@]34CCCN3C[C@H](F)C4)nc(N3CCOC[C@@](C)(O)C3)c12` [Ex-152, (6S)-4-(8-(5-(1,1-difluoroallyl)-6-methyl-1H-indazol-4-yl)-2-(((2R,7aS)-2-fluorotetrahydro-1H-pyrrolizin-7a(5H)-yl)methoxy)pyrido[4′,3′:4,5]thieno[2,3-d]pyrimidin-4-yl)-6-methyl-1,4-oxazepan-6-ol], the IC50 came to 76.9 nM at KRAS-G12D, 106 nM on KRAS-G12V, 636 nM in the test with AsPC-1 cells (2 hours compound incubation) and 195 nM on KRAS-WT.

As for `CNc1cc2c(sc3nc(OC[C@@]45CCCN4C[C@H](F)C5)nc(N4CCOC[C@@](C)(O)C4)c32)c(-c2c(C(F)(F)F)c(C)cc3[nH]ncc23)n1` [Ex-30, (6S)-4-(2-(((2R,7aS)-2-fluorotetrahydro-1H-pyrrolizin-7a(5H)-yl)methoxy)-8-(6-methyl-5-(trifluoromethyl)-1H-indazol-4-yl)-6-(methylamino)pyrido[4′,3′:4,5]thieno[2,3-d]pyrimidin-4-yl)-6-methyl-1,4-oxazepan-6-ol], the IC50 was found to be 158 nM at KRAS-G12D; 196 nM at KRAS-G12V; 730 nM with AsPC-1 cells (KRAS-G12D, 2 hours); 436 nM at KRAS-WT.

For `C[C@@H]1CC[C@@H](COc2nc(N3CCOC[C@@](C)(O)C3)c3c(n2)sc2c(-c4c(C5CC5)c(C(F)(F)F)cc5[nH]ncc45)nccc23)N1C` [Ex-86, (6S)-4-(8-(5-cyclopropyl-6-(trifluoromethyl)-1H-indazol-4-yl)-2-(((2S,5R)-1,5-dimethylpyrrolidin-2-yl)methoxy)pyrido[4′,3′:4,5]thi-eno[2,3-d]pyrimidin-4-yl)-6-methyl-1,4-oxazepan-6-ol], the IC50 was 14.6 nM on KRAS-G12D; 21.2 nM at KRAS-G12V; 361 nM in the test with AsPC-1 cells (KRAS-G12D, 2 hours); 33.8 nM at KRAS-WT.

In the case of `C[C@@]1(O)COCCN(c2nc(OC[C@]3(CN4CC5(CC5)C4)CC3(F)F)nc3sc4c(-c5c(C6(F)CC6)c(Cl)cc6[nH]ncc56)nccc4c23)C1` [Ex-250, (6S)-4-(2-(((R)-1-((5-azaspiro[2.3]hexan-5-yl)methyl)-2,2-difluorocyclopropyl)methoxy)-8-(6-chloro-5-(1-fluorocyclopropyl)-1H-indazol-4-yl)pyrido[4′,3′:4,5]thieno[2,3-d]pyrimidin-4-yl)-6-methyl-1,4-oxazepan-6-ol], the IC50 on KRAS-G12D is 8.56 nM; on KRAS-G12V, 18.6 nM; with AsPC-1 cells (2 hours compound incubation), 152 nM; on KRAS-WT it was 36.2 nM.

Turning to `CN1CC[C@H]2C(Oc3nc(N4CCOC[C@@](C)(O)C4)c4c(n3)sc3c(-c5c(C6CC6)c(Cl)cc6[nH]ncc56)nccc34)C[C@H]21` (stereo partly drawn) [Ex-216, (6S)-4-(8-(6-chloro-5-cyclopropyl-1H-indazol-4-yl)-2-(((1R,5R,6S)-2-methyl-2-azabicyclo [3.2.0]heptan-6-yl)-oxy)pyrido[4′,3′: 4,5]thieno[2,3-d]pyrimidin-4-yl)-6-methyl-1,4-oxaze-pam-6-ol], the IC50 on KRAS-G12D came to 464 nM; at KRAS-G12V, 864 nM; with AsPC-1 cells (2 hours compound incubation) it was 2900 nM; at KRAS-WT, 1590 nM.

With `C[C@@H]1CN(C[C@@]2(COc3nc(N4CCOC[C@@](C)(O)C4)c4c(n3)sc3c(-c5c(C6(F)CC6)c(Cl)cc6[nH]ncc56)nccc34)CC2(F)F)CCO1` [Ex-243], the IC50 on KRAS-G12D was determined as 87.3 nM; at KRAS-G12V, 333 nM; in the test on AsPC-1 cells (2 hours compound incubation) it was 943 nM; at KRAS-WT it was 986 nM.

On to `Cc1cc2[nH]ncc2c(-c2nc(C#N)cc3c2sc2nc(OC[C@@]45CCCN4C[C@H](F)C5)nc(N4CCOC[C@@](C)(O)C4)c23)c1C(F)(F)F` [Ex-31, 2-(((2R,7aS)-2-fluorotetrahydro-1H-pyrrolizin-7a(5H)-yl)methoxy)-4-((S)-6-hydroxy-6-methyl-1,4-oxazepan-4-yl)-8-(6-methyl-5-(trifluoromethyl)-1H-indazol-4-yl)pyrido[4′,3′:4,5]thieno[2,3-d]pyrimidine-6-carbonitrile], for which the IC50 at KRAS-G12D amounted to 305 nM; on KRAS-G12V, 219 nM; with AsPC-1 cells (KRAS-G12D, 2 hours), 1310 nM; at KRAS-WT it was 571 nM.

For `C=C(c1c(C)cc2[nH]ncc2c1-c1nccc2c1sc1nc(OC[C@@]34CCCN3C[C@H](F)C4)nc(N3CCOC[C@@](C)(O)C3)c12)C(F)(F)F` [Ex-66, (6S)-4-(2-(((2R,7aS)-2-fluorotetrahydro-1H-pyrrolizin-7a(5H)-yl)methoxy)-8-(6-methyl-5-(3,3,3-trifluoroprop-1-en-2-yl)-1H-indazol-4-yl)pyrido[4′,3′:4,5]thieno [2,3-d]pyrimidin-4-yl)-6-methyl-1,4-oxazepan-6-ol], the IC50 at KRAS-G12D is 93.6 nM; on KRAS-G12V, 57.9 nM; with AsPC-1 cells (KRAS-G12D, 2 hours) it was 457 nM; at KRAS-WT it was 218 nM.

As usually defined, the IC50 is the concentration needed to halve the response being measured.

The values are drawn from patent US20260176289A1, “SMALL MOLECULE INHIBITORS OF KRAS PROTEINS” (Merck Sharp & Dohme LLC, priority 2022, published 2026).
